Data reported in US11779628B2, “Use of cell-permeable peptide inhibitors of the JNK signal transduction pathway for the treatment of various diseases” (Xigen Inflammation Ltd., priority 2014, dated 2023).

What was measured:
[1] = test system: HCT 116 human colon tumor; experiment: Orthotopic HCT 116 human colon tumors in SCID mice; format: in vivo
Procedure: The objective of this study was to determine the effect of XG-102 on the growth of HCT 116 human colon tumor orthotopically xenografted in SCID mice.
For XG-102 administration the required amount of XG-102 was dissolved in the vehicle. The formulation was prepared according to the procedure detailed below. Concentrations were calculated and expressed taking into account test item purity and peptide content (multiplier coefficient was 74.6%). […] Diluted solutions were maintained on ice until use. Unused material was discarded. XG-102 was injected once daily at 0.1 and 1 mg/kg/inj. for a total of fourteen consecutive administrations (Q1Dx14). The routes of substance administrations were: injected subcutaneously (SC) at 5 ml/kg/inj., administered per os (PO) to mice by oral gavage via a cannula at 5 ml/kg/adm. The injection and administration volumes were adapted, according to the daily individual body weight of mice.
Twenty four to Forty-eight hours before tumor induction, 5 SCID mice were irradiated with a γ-source (1.8 Gy, Co^60, INRA, Dijon, France). Ten millions (10^7) HCT 116 cells suspended in 200 μl of RPMI medium were subcutaneously injected in the right flank of the 5 female SCJD mice. When tumors reached 1000-2000 mm^3, mice were sacrificed. Tumors were surgically excised from the animal to obtain fresh tumor fragments (20-30 mg) to be orthotopically implanted on the caecum of 75 mice at D0.
Twenty four to forty-eight hours before tumor implantation, 75 SCID mice were irradiated with a γ-source (1.8 Gy, Co^60, INRA, Dijon, France). The surgery was performed in the afternoon, with a minimum delay of two hours after the 7th XG-102 treatment. The abdomen from anaesthetized animal was opened through a median incision under aseptic conditions. The caecum was exteriorized and a small lesion was performed on caecum wall. The tumor fragment was placed on lesion and fixed with 6/0 sutures. The abdominal cavity was subsequently closed in 2 layers with 4/0 sutures.
At D-7, mice were randomized according to their body weight before treatment start to form 5 groups of 15 mice. The body weight of each group was not statistically different from the others (analysis of variance). The treatment began at D-7 according to following treatment schedule: • Mice from group 1 received one PO administration of XG-102 vehicle at 5 ml/kg/inj. once daily for a total of fourteen consecutive administrations (Q 1 Dx14), • Mice from group 2 received one PO administration of XG-102 at 0.1 mg//kg/inj. once daily for a total of fourteen consecutive administrations (QI Dx14), • Mice from group 3 received one PO administration of XG-102 at 1 mg//kg/inj. Once daily for a total of fourteen consecutive administrations (Q1Dx14), • Mice from group 4 received one SC injection of XG-102 at 0.1 mg//kg/inj. once daily for a total of fourteen successive administrations (Q1Dx14), • Mice from group 5 received one SC injection of XG-102 at 1 mg//kg/inj. once daily for a total of fourteen consecutive administrations (Q1Dx14):
Mice were monitored every day throughout the study for behaviour and survival. The body weight and tumor volume was monitored twice a week for all mice throughout the study. Isoflurane® Forene (Centravet, Bondoufle, France) was used to anaesthetize the animals before cell injection, surgery (orthotopic tumor implantation) and sacrifice.
Mice were sacrificed at D26. […] Invasion of liver by tumor nodules was evaluated macroscopically. […]

[2] = test system: Primary cultured macrophages; format: cell-based
Procedure: FIG. 24 Primary cultured macrophages were incubated with XG-102 (SEQ ID NO: 11) and extensively washed.

## CC(C)C[C@@H](NC(=O)[C@@H](Cc1ccccc1)NC(=O)[C@H]1CCCN1C(=O)[C@@H](CCC(N)=O)NC(=O)[C@H](NC(=O)[C@H]1CCCN1C(=O)[C@@H](CCCNC(=N)N)NC(=O)[C@@H](CO)NC(=O)[C@@H](CCC(N)=O)NC(=O)[C@H](N)CC(=O)O)C(C)C)C(=O)N[C@H](CC(N)=O)C(=O)N[C@H](CC(C)C)C(=O)N[C@@H](C(=O)N[C@@H](C(=O)N1CCC[C@@H]1C(=O)N[C@H](CCCNC(=N)N)C(=O)N[C@H](CCCCN)C(=O)N1CCC[C@@H]1C(=O)N[C@H](CCCNC(=N)N)C(=O)N1CCC[C@@H]1C(=O)N1CCC[C@@H]1C(=O)N[C@H](CCCNC(=N)N)C(=O)N[C@H](CCCNC(=N)N)C(=O)N[C@H](CCCNC(=N)N)C(=O)N[C@H](CCC(N)=O)C(=O)N[C@H](CCCNC(=N)N)C(=O)N[C@H](CCCNC(=N)N)C(=O)N[C@H](CCCCN)C(=O)N[C@H](CCCCN)C(=O)N[C@H](CCCNC(=N)N)C(=O)NCC(=O)O)[C@H](C)O)[C@H](C)O [XG-102]
[1]; 1st treated group listed (PO 0.1 mg/kg, order assumed)
  percentage of death D0 to D9 (surgery complications): 40%
[1]; 2nd treated group listed (PO 1 mg/kg, order assumed)
  percentage of death D0 to D9 (surgery complications): 34%
[1]; 3rd treated group listed (SC 0.1 mg/kg, order assumed)
  percentage of death D0 to D9 (surgery complications): 47%
[1]; 4th treated group listed (SC 1 mg/kg, order assumed)
  percentage of death D0 to D9 (surgery complications): 40%
[1]; PO 0.1 mg/kg/adm.
  MBWC at D-2: +7.1±4.6%
[2]
  incorporation into macrophages: is strongly incorporated into primary macrophages
